Results from article PMC7595425 (PLoS ONE, 2020).
Where “and” joins values, the source holds several entries; their conditions need not be identical. Identical values can stand only once.

Experiments:
P-gp [1] = target: T1, P-gp (Homo sapiens, UniProt P08183); assay: ATPase assay with P-gp-expressing membrane vesicles (SB-MDR1 […] ATPase Kit); format: biochemical
Experimental: The SB-MDR1 […] ATPase Kit, including P-gp-expressing membrane vesicles, was purchased from SOLVO Biotechnology (distributed by KAC Co., Ltd., Kyoto, Japan). This assay kit measures the interaction of test drugs with P-gp. ATPase assay was conducted according to the manufacturer’s instructions and a previous report. Inorganic phosphate liberated by ATP hydrolysis was detected by colorimetric reaction. The optical density (OD) was measured at 590 nm with a microplate reader, Sunrise™ Rainbow (TECAN, Kanagawa, Japan).

[2] = in combination with sertraline; cited from earlier work
[3] = Bidirectional assay across Caco-2 cell monolayers; settings: human
Source text: Caco-2 cells (RRID:CVCL_0025), a human colon epithelial cancer cell line frequently used as an in vitro intestinal model, were purchased from the American Type Culture Collection (Rockville, MD, USA). […] The receiver side contained transport medium.

P-gp [4] = target: T1, P-gp; assay: Efflux rate assay using P-gp-overexpressing LLC-GA5-CoL150 cells; format: in vitro ADME; design: host or cells: LLC-GA5-CoL150 (derivative of LLC-PK1 kidney epithelial cells)
Experimental: Efflux assay with LLC-GA5-CoL150 cells was performed as previously described, with some modifications. […] The cells were incubated for 30 min at 4°C, washed twice with ice-cold D-PBS(-), and further incubated in Opti-MEM® for 10 min at 37°C. The cells were then washed three times with ice-cold D-PBS(-), dried, and lysed by adding 200 μL of 0.1 N NaOH solution. […] The efflux rate was calculated according to the following formula.
Effluxrate(pmol/min/mgprotein)={Initialuptakeofpimozide(pmol/mgprotein)−Residualamountofpimozideafter10minincubation(pmol/mgprotein)}/10(min)
Protein was determined colorimetrically using DCTM Protein Assay (BIO-RAD, Hercules, CA), based on absorbance measurement at 700 nm with a microplate reader, Sunrise Rainbow RC (Tecan, Kanagawa, Japan). An aliquot of cell lysate was mixed with 300 μL of ethyl acetate for 10 min in the cold, then 100 μL of the organic phase was taken and evaporated. The residue was dissolved in 300 μL of mobile phase. All samples were applied to MultiScreen® Solvent Filter Plates 0.45 μm Low-Binding Hydrophilic PTFE (Merck, Ireland) and centrifuged at 3,500 rpm for 20 min at 4°C.
To estimate the kinetic parameters of carrier-mediated transport in the efflux assays, the transport rate (J) was fitted to the following Eq (1), containing saturable and nonsaturable-linear terms, by using the nonlinear least-squares regression analysis program, MULTI, as previously reported. J=Jmax×[S]/(Kt+[S])+kd×[S] (1) Where Jmax is the maximum transport rate for the carrier-mediated transport, [S] is the substrate concentration, Kt is the half-saturation concentration, and kd is the first-order rate constant.

[5] = pimozide 0.01 to 100 μM, mean ± S.D.

T1 sequence (P08183 whole entry): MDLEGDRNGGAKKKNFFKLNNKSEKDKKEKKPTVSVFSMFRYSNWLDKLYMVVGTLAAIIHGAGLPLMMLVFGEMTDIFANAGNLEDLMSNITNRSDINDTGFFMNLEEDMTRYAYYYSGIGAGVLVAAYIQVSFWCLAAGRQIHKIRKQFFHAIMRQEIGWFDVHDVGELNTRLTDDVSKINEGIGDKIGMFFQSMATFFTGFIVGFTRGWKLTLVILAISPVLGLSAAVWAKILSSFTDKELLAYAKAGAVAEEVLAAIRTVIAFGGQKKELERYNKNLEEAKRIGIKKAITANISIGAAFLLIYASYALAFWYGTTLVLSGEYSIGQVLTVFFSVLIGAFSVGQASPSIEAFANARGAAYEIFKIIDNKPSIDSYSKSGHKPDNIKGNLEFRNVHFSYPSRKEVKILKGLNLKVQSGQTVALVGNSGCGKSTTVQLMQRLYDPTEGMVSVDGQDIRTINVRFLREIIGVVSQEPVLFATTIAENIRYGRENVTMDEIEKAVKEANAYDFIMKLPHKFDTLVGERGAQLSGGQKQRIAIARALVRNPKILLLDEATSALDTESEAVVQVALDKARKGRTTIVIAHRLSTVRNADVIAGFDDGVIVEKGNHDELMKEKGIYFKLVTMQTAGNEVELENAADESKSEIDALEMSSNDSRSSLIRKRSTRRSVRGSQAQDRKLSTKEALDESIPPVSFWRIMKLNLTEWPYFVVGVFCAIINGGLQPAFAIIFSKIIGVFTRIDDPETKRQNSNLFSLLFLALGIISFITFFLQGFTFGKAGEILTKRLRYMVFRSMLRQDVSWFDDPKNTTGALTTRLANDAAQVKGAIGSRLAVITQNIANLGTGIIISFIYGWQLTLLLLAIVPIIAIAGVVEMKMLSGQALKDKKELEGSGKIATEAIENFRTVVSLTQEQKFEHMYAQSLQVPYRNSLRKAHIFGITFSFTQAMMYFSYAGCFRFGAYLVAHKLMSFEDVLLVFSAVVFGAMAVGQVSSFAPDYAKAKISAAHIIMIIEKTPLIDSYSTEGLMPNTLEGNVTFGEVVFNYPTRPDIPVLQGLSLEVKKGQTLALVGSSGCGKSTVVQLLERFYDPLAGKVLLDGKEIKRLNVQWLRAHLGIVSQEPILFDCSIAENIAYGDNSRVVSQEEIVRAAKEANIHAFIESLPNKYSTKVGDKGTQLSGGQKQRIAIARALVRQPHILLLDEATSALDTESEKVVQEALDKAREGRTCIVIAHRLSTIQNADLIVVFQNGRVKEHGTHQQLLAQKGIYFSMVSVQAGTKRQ

Compound: O=c1[nH]c2ccccc2n1C1CCN(CCCC(c2ccc(F)cc2)c2ccc(F)cc2)CC1 [Pimozide]
- P-gp substrate/inhibitor classification from ATPase assay (P-gp [1]; ATPase activity increased concentration-dependently, reduced in the high concentration range): both a P-gp substrate and an inhibitor
- pimozide concentration over which ATPase activity decreased (P-gp [1]; concentration range 0.04 to 100 μM, concentration-dependent elevation at lower concentrations): about 10 μM
- change of blood half-life of pimozide [2]: without any significant change
- increase of AUC of pimozide [2]: 37%
- increase of Cmax of pimozide [2]: 35%
- Papp A→B at 120 min, 10 μM [3]: 1.64 ± 0.14 ×10⁻⁶ cm/s
- Papp B→A at 120 min, 10 μM [3]: 0.35 ± 0.01 ×10⁻⁶ cm/s
- Jmax/Kt (affinity for the transport carrier(s)) (P-gp [4]): 8.0 μL/min/mg protein
- Jmax (maximum transport rate for the carrier-mediated transport) (P-gp [4]; [5]): 84.9 ± 8.9 pmol/min/mg protein
- Kt (half-saturation concentration) (P-gp [4]; [5]): 10.6 ± 4.7 µM and 10.6 µM
